Data as given in a melting point compilation (Tetko et al.).

Compound | melting point [°C]
C=CCCCCCCCCC | -49.2
CCC1(O)CCC2C3CCC4=CCCCC4C3CCC21C (stereo not drawn) | 77
O=[N+]([O-])c1ccsc1Cl | 51 to 52
ClC(Cl)=C(Cl)C(Cl)=C(Cl)Cl | -21
N#Cc1ccc(-c2cc[nH]n2)cc1 | 141
C[C@H](O)C(=O)O | 53
CNc1nnc(S)s1 | 190 to 193
O=C(/C=C/Nc1ccccc1)c1ccc2c(c1)CCCC2 | 175
CSc1ccc(C#N)cc1 | 62
Cc1nc(-c2ccc(S(=O)(=O)N(C)C)cc2)c(-c2ccc(S(=O)(=O)N(C)C)cc2)o1 | 208 to 211
C#CC=CC=C | -81
O=[N+]([O-])c1ccc2[nH]ncc2c1 | 210
CCCCCCCCSC(=O)Oc1cc(Cl)nnc1-c1ccccc1 | 27
C=CCN(CC=C)C(=O)C(Cl)Cl | 5.5
C=CCSc1nc(C)n[nH]1 | 88 to 90
CCCCCCCCCCCCCCCCCCOC(=O)CCc1cc(C(C)(C)C)c(O)c(C(C)(C)C)c1 | 52.5
CNC(=N[N+](=O)[O-])NCc1cnc(Cl)s1 | 177
Cn1nc(-c2cccs2)cc1CN | 77 to 78
OCc1ncoc1-c1ccccc1 | 95 to 97

Compound | melting point [°C]
CC(C)(C)OOC(C)(C)CCC(C)(C)OOC(C)(C)C | 8
Clc1ccc(P(c2ccc(Cl)cc2)c2ccc(Cl)cc2)cc1 | 103
O=S(=O)(Cl)c1ccc(Oc2ccccc2)cc1 | 44
Nc1cc2ccccc2cc1O | 235
Nc1cccc(-c2ccsc2)c1 | 89
CC(=O)CC(O)C(Cl)(Cl)Cl (stereo not drawn) | 75 to 76
CC(=O)c1ccc(N=C=S)cc1 | 82 to 85
Cc1cc(C(C)(C)C)cc(C)c1I | 56
CCCCCBr | -92.7
O=C1OC(c2ccccc2)=NC1=Cc1cccs1 | 167
N#CC(N)=C(N)C#N | 178 to 179
O=Cc1cccc(-c2ccsc2)c1 | 48 to 49
CCC(=O)OC1CCC2(C)C(=CCC3C2CCC2(C)C(C(C)CCCC(C)C)CCC32)C1 (stereo not drawn) | 97 to 100
C#CC(C1COC(C)(C)O1)N(O)Cc1ccccc1 (stereo not drawn) | 115
NCc1ccc(N2CCCC2)cc1 | 37 to 44
Oc1ccc2c(c1)Cc1ccccc1-2 | 168
O=C(O)C(CCBr)(c1ccccc1)c1ccccc1 | 135 to 137
CN(C)CCN(C)CCN(C)C | 18

Continued, values first:

melting point [°C] | Compound
21.5 | Cc1c(Cl)cccc1C#N
154 | NC(=O)c1ccccc1OC(F)(F)F
60 to 61 | COC(=O)c1ccccc1SCC(C)=O
179 to 181 | CC(C)(C)OC(=O)Nc1ccc(C(=O)O)cc1
171 | Cc1ccc2cc3c(cc2n1)CCC(C)N3 (stereo not drawn)
118 to 121 | CCOC(=O)C1CSCCN1 (stereo not drawn)
212 | O=C1C(Cl)=C(NC(=O)C(Cl)Cl)C(=O)c2ccccc21
146 | CCOC(=O)N1COCc2c1ccc1cc3ccc(NC)c(CO)c3nc21
21.7 | Cc1ccccc1Oc1ccccc1
128 | CCOC(=O)c1sc(-c2ccc(N)cc2)nc1C
133 | CCOc1ccc(-c2nnc3n2NC(c2ccc(O)c(OC)c2)S3)cc1 (stereo not drawn)
130 | COc1cccc2oc(-c3ccccc3)cc(=O)c12
263 | CC(=O)OCC(=O)C1(O)C(C)CC2C3CCC4=CC(=O)C=CC4(C)C3(F)C(O)CC21C (stereo not drawn)
163 to 165 | Cc1cccc(C)c1NC(=O)C(C)Br (stereo not drawn)
127 to 128 | CC(=O)C(=Cc1ccc(-c2ccccc2[N+](=O)[O-])o1)C(C)=O
195 | CCOC(=O)C1=C(C)NC(=O)NC1c1cccc(OC)c1OC (stereo not drawn)
